Patent US6984403B2, “Azithromycin dosage forms with reduced side effects” (Pfizer Inc., priority 2003, dated 2006)
≈ marks a conversion by molar mass, not a printed value. Like-named read-outs stand apart in the source and are kept apart here.

Tests used:
[1] = taken simultaneously with antacids; cited from earlier work
[2] = Azithromycin solubility as a function of pH; type: physicochemical
Protocol: The effective amount of alkaline agent that would suppress the dissolution of azithromycin in the stomach and thereby result in an improvement in the toleration of the immediate release (IR) formulation was calculated as follows. The IR formulation, without an alkalizing agent, releases about 92% of the drug in 30 minutes at pH 6.0 as described in Example 5, i.e., 3.07% per minute at pH 6.0. To improve the toleration, the azithromycin dissolution rate must be reduced, preferably to a rate that will release only about 1.5 gA, or less, in the first 30 minutes or no greater than 2.5% per minute. It was assumed that the rate of drug dissolution from an IR formulation is directly proportional to the solubility of azithromycin, which is dependent on the pH as shown in Table 10.

[3] = 3,995 human patients, all dose levels combined, cited from earlier work
[4] = cited from earlier work
[5] = adult humans, single 1 gram dose, oral suspension
[6] = adult humans, single 2 gram, oral suspension
[7] = pediatric humans, oral suspension 10 mg/kg on Day 1 and 5 mg/kg on days 2–5
[8] = pediatric humans, single 30 mg/kg dose, oral suspension

solubility ([2]; aqueous buffer, pH 6.0, obtained by interpolation from Table 10, read-out: azithromycin solubility at pH 6.0): 390 mg/mL (≈ 521 mM)
solubility ([2]; pH 2.88, aqueous buffer, read-out: Azithromycin Solubility): 440 mg/mL (≈ 587 mM)
solubility ([2]; pH 4.09, aqueous buffer, read-out: Azithromycin Solubility): 430 mg/mL (≈ 574 mM)
solubility ([2]; pH 6.15, aqueous buffer, read-out: Azithromycin Solubility): 380 mg/mL (≈ 507 mM)
solubility ([2]; pH 6.42, aqueous buffer, read-out: Azithromycin Solubility): 310 mg/mL (≈ 414 mM)
solubility ([2]; pH 6.61, aqueous buffer, read-out: Azithromycin Solubility): 250 mg/mL (≈ 334 mM)
solubility ([2]; pH 6.65, aqueous buffer, read-out: Azithromycin Solubility): 140 mg/mL (≈ 187 mM)
solubility ([2]; pH 6.75, aqueous buffer, read-out: Azithromycin Solubility): 120 mg/mL (≈ 160 mM)
solubility ([2]; pH 6.87, aqueous buffer, read-out: Azithromycin Solubility): 36 mg/mL (≈ 48.1 mM)
solubility ([2]; pH 7.41, aqueous buffer, read-out: Azithromycin Solubility): 5 mg/mL (≈ 6.68 mM)
solubility ([2]; pH 8.02, aqueous buffer, read-out: Azithromycin Solubility): 0.5 mg/mL (≈ 0.668 mM)
solubility ([2]; pH 8.85, aqueous buffer, read-out: Azithromycin Solubility): 0.02 mg/mL (≈ 0.0267 mM)
solubility ([2]; pH 10.34, aqueous buffer, read-out: Azithromycin Solubility): 0.005 mg/mL (≈ 0.00668 mM)
Compound: CC[C@H]1OC(=O)[C@H](C)[C@@H](O[C@H]2C[C@@](C)(OC)[C@@H](O)[C@H](C)O2)[C@H](C)[C@@H](O[C@@H]2O[C@H](C)C[C@H](N(C)C)[C@H]2O)[C@](C)(O)C[C@@H](C)CN(C)[C@H](C)[C@@H](O)[C@]1(C)O [Azithromycin, azithromycin]
reduction of azithromycin maximum serum concentration Cmax by antacids [1]: 24%
patients reporting GI side effects ([3]; oral): 9.6%
frequency of abdominal pain [3]: 2.5%
frequency of diarrhea [3]: 3.6%
frequency of nausea [3]: 2.6%
reported incidence of abdominal pain [4, 5]: 5%
reported incidence of diarrhea/loose stools [4, 5]: 7%
reported incidence of nausea [4, 5]: 5%
reported incidence of vomiting [4, 5]: 2%
reported incidence of abdominal pain [4, 6]: 7%
reported incidence of diarrhea/loose stools [4, 6]: 14%
reported incidence of vomiting [4, 6]: 7%
reported incidence of abdominal pain [4, 7]: 2%
reported incidence of diarrhea/loose stools [4, 7]: 4%
reported incidence of vomiting [4, 7]: 2%
reported incidence of diarrhea/loose stools [4, 8]: 6.4%
reported incidence of nausea [4, 8]: 1.7%
reported incidence of vomiting [4, 8]: 4%
